Experimental data published in patent publication US20150031892A1, “SPHINGOLIPID METABOLITE MIMETICS” (Zhejiang University, priority 2012, published 2015).

How the values were obtained:
Type in all cases: cell-based
HepG2 = experiment: MTT cytotoxicity assay, HepG2 (liver cancer); details: Homo sapiens
Protocol: (§1) Cell survival after exposure to the sphingolipid metabolite mimetics was examined by MTT cytotoxicity assay. HepG2, A431, HeLa, MCF-7 and SA cells (7000 cells/well) were seeded in each well of a 96-well plate for 24 h. New medium was added to give final concentrations of 0 to 200 μM of the sphingolipid metabolite mimetics. Then, 50 μl of 1 mg/ml 3-(4,5-dimethylthiazol-2-yl)-2,5-diphenyltetrazolium bromide (MTT, Sigma-Aldrich Chemical) was added to each well for 4 h incubation at 37° C. The purple formazan formed was then solubilized by DMSO and absorbance at 570 nm was read by a microplate reader (Molecular Devices, Sunnyvale, Calif.).

A431 = experiment: MTT cytotoxicity assay, A431 (squamous carcinoma); details: Homo sapiens, A-431
Protocol: as §1

SA = experiment: MTT cytotoxicity assay, SA (pancreatic cancer as headed)
Protocol: as §1

SiHa = experiment: MTT cytotoxicity assay, SiHa (ovarian cancer as headed); details: Homo sapiens, Cervical Cancer SiHa
SW480 = experiment: MTT cytotoxicity assay, SW480 (colon cancer); details: Homo sapiens
MCF-7 = experiment: MTT cytotoxicity assay, MCF-7 (breast cancer); details: Homo sapiens, MCF7; Breast Cancer MCF-7, MTT
Protocol: as §1

SW620 = experiment: MTT cytotoxicity assay, SW620 (colon cancer); details: Homo sapiens, SW-620

SMILES | IC50 (HepG2) [µM] | IC50 (A431) [µM] | IC50 (SA) [µM] | IC50 (SiHa) [µM] | IC50 (SW480) [µM] | IC50 (MCF-7) [µM] | IC50 (SW620) [µM]
CCCCCCCCCCCCNC(=O)[C@@H](NC(=O)c1cc2ccccc2n1C)[C@@H](C)O [NZJU50, N-((2S,3R)-3-hydroxy-1-oxo-1-(dodecylamino)butan-2-yl)-(N-methyl)indole-2-carboxamide] | > 200 | 169 ± 14.7 | 31.3 ± 1.14 | > 200 | 36 ± 2.87 | – | –
CCCCCCCCNC(=O)[C@@H](NC(=O)c1nccc2ccccc12)[C@@H](C)O [NZJU43, N-((2S,3R)-3-hydroxy-1-oxo-1-(octylamino)butan-2-yl)-isoquinoline-1-carboxamide] | 88.2 ± 1.92 | 26.9 ± 2.81 | 22.9 ± 2.59 | 66 ± 5.48 | – | 63.2 ± 4.73 | 67.75 ± 0.099
CCCCCCCCCCCCCCCCCCNC(=O)[C@@H](NC(=O)c1cccs1)[C@@H](C)O [NZJU35, N-((2S,3R)-3-hydroxy-1-oxo-1-(octadecylamino)butan-2-yl)-2-thiophene carboxamide] | 92 ± 7.76 | 33.3 ± 3.32 | 53.5 ± 5.32 | 117 ± 3.9 | 89 | 25.7 ± 0.47 | ≥ 200
CCCCCCCCCCCCCC(=O)N[C@H](C(=O)Nc1ccccc1)[C@@H](C)O [NZJU19, N-((2S,3R)-3-Hydroxy-1-oxo-1-(benzamino)butan-2-yl)-tetradecyl acid amide] | > 400 | > 200 | > 200 | > 200 | > 200 | > 400 | ≥ 200
CCCCCCCCCCCCCCCCCCNC(=O)[C@@H](NC(=O)c1ccco1)[C@@H](C)O [NZJU15, N-((2S,3R)-3-hydroxy-1-oxo-1-(octadecylamino)butan-2-yl)-Furan-2-carboxamide] | 42.3 ± 3.73 | 19.9 ± 0.45 | 52.6 ± 6.02 | 13.3 ± 1.05 | 24.4 ± 0.7 | 21.4 ± 2.4 | –
CCCCCCCCCCCCNC(=O)[C@@H](NC(=O)c1ccc2cc(O)ccc2c1)[C@@H](C)O [NZJU53, N-((2S,3R)-3-hydroxy-1-oxo-1-(dodecylamino)butan-2-yl)-6-hydroxylnaphthoic-2-carboxamide] | 43 ± 4.04 | 33 ± 3.55 | 37.1 ± 1.17 | 27.4 ± 2.07 | 58.1 ± 4.37 | – | –
CCCCCCCCCCCCCCCCCCNC(=O)[C@@H](NS(=O)(=O)c1ccc2ccccc2c1)[C@@H](C)O [NZJU63, N-((2S,3R)-3-hydroxy-1-oxo-1-(octadecylamino)butan-2-yl)-2-naphthylsulfonamide] | 19.8 ± 3.12 | 23.7 ± 1.46 | 21.2 ± 0.81 | 19.9 ± 3.31 | 69.1 ± 9.67 | – | –
C/C=C/C=C/C(=O)N[C@H](C(=O)NCCCCCCCCCCCCCC)[C@@H](C)O [NZJU11, (2E,4E)-N-((2S,3R)-3-hydroxy-1-oxo-1-(tetradecylamino)butan-2-yl)-2,4-hexadienoic acid amide] | > 400 | > 200 | 184 ± 1.9 | > 200 | > 200 | 27.76 ± 0.14 | ≥ 200
CCCCCCCCCCCCNC(=O)[C@@H](NC(=O)/C=C/c1ccccc1)[C@@H](C)O [NZJU24, (E)-N-((2S,3R)-3-hydroxy-1-oxo-1-(dodecylamino)butan-2-yl)-3-phenyl acrylic acid amide] | > 200 | > 200 | 154.8 ± 1.16 | > 200 | > 200 | > 200 | ≥ 200
CCCCCCCCCCCCCCNC(=O)[C@@H](NC(=O)/C=C/c1ccccc1)[C@@H](C)O [NZJU25, (E)-N-((2S,3R)-3-hydroxy-1-oxo-1-(tetradecylamino)butan-2-yl)-3-phenyl acrylic acid amide] | 150 ± 4.37 | 64.9 ± 4.87 | 80.9 ± 1.9 | 35.8 ± 0.68 | 86.9 | 64.6 ± 4.54 | ≥ 200
CCCCCCCCCCCCNC(=O)[C@@H](NS(=O)(=O)c1ccc(C)cc1)[C@@H](C)O [NZJU56, N-((2S,3R)-3-hydroxy-1-oxo-1-(dodecylamino)butan-2-yl)-4-methylbenzsulfonamide] | 25.8 ± 0.52 | 25.2 ± 0.99 | 27.2 ± 0.99 | 31.6 ± 4.56 | 39.9 ± 2.54 | – | –
CCCCCCCCCCCCCCNC(=O)[C@@H](NC(=O)c1ccc2cc(O)ccc2c1)[C@@H](C)O [NZJU54, N-((2S,3R)-3-hydroxy-1-oxo-1-(tetradecylamino)butan-2-yl)-6-hydroxylnaphthoic-2-carboxamide] | 23.6 ± 1.16 | 24.4 ± 1.27 | 24.2 ± 0.83 | 30.1 ± 3.01 | 33.2 ± 1.08 | – | –
CCCCCCCCCCCCCCCCCCNC(=O)[C@@H](NS(=O)(=O)c1ccc(C)cc1)[C@@H](C)O [NZJU58, N-((2S,3R)-3-hydroxy-1-oxo-1-(octadecylamino)butan-2-yl)-4-methylbenzsulfonamide] | 75.8 ± 9.46 | 34 ± 1.03 | 47.9 ± 5.2 | 29.8 ± 2.23 | > 200 | – | –
CCCCCCCCCCCCCCCCCCNC(=O)[C@@H](NC(=O)c1ccccc1)[C@@H](C)O [NZJU18, N-((2S,3R)-3-hydroxy-1-oxo-1-(octadecylamino)butan-2-yl)-benzamide] | > 400 | 113 ± 7.87 | > 400 | 38.2 ± 2.52 | 36.47 ± 0.23 | 31.7 ± 6.55 | ≥ 200
CCCCCCCCNC(=O)[C@@H](NC(=O)c1ccco1)[C@@H](C)O [NZJU40, N-((2S,3R)-3-hydroxy-1-oxo-1-(octylamino)butan-2-yl)-Furan-2-carboxamide] | 192 ± 11.1 | 64.5 ± 0.78 | 64.65 ± 0.5 | 124 ± 8.78 | 194 | 91.8 ± 4.21 | ≥ 200
C/C=C/C=C/C(=O)N[C@H](C(=O)NCCCCCCCCCCCCCCCCCC)C(C)O (stereo in doubt) [NZJU12, (2E,4E)-N-((2S,3R)-3-hydroxy-1-oxo-1-(octadecylamino)butan-2-yl)-2,4-hexadienoic acid amide] | 284 ± 8.3 | 187 ± 2.41 | > 200 | > 200 | 196 | 79.6 ± 2.34 | ≥ 200
CCCCCCCCCCCCCCNC(=O)[C@@H](NC(=O)c1ccccc1)[C@@H](C)O [NZJU17, N-((2S,3R)-3-hydroxy-1-oxo-1-(tetradecylamino)butan-2-yl)-benzamide] | 54.2 ± 3.95 | 118 ± 9.09 | 56 ± 7.43 | > 200 | ≥ 200 | 24.8 ± 6.75 | ≥ 200
CCCCCCCCCCCCCCNC(=O)[C@@H](NC(=O)c1ccco1)[C@@H](C)O [NZJU14, N-((2S,3R)-3-hydroxy-1-oxo-1-(tetradecylamino)butan-2-yl)-Furan-2-carboxamide] | > 400 | 190 ± 6.86 | 148 ± 11.6 | 127 ± 7.41 | 110 ± 5.03 | 105 ± 5.03 | ≥ 200
CCCCCCCCCCCCCCNC(=O)[C@@H](NC(=O)C1=C[C@H](O)[C@H](O)[C@@H](O)C1)[C@@H](C)O [NZJU64, (3S,4R,5S)-3,4,5-trihydroxy-N-((2S,3R)-3-hydroxy-1-oxo-1-(tetradecylamino)butan-2-yl)cyclohex-1-enecarboxamide] | 29.9 ± 2.81 | 23.1 ± 2.97 | 33.7 ± 1.28 | 24.6 ± 2.04 | 47.8 ± 3.43 | – | –
CCCCCCCCCCCCCCCCCCNC(=O)[C@@H](NS(=O)(=O)c1cccs1)[C@@H](C)O [NZJU61, N-((2S,3R)-3-hydroxy-1-oxo-1-(octadecylamino)butan-2-yl)-2-thiophene sulfonamide] | > 200 | > 200 | > 200 | > 200 | > 200 | – | –
CCCCCCCCCCCCCCCCCCNC(=O)[C@@H](NC(=O)c1cc2ccccc2n1C)[C@@H](C)O [NZJU52, N-((2S,3R)-3-hydroxy-1-oxo-1-(octadecylamino)butan-2-yl)-(N-methyl)indole-2-carboxamide] | > 200 | 61 ± 1.82 | 36.37 ± 0.19 | 113 ± 12 | 36 ± 3.23 | – | –
CCCCCCCCCCCCCCCCCCNC(=O)[C@@H](NC(=O)c1ccc2cc(O)ccc2c1)[C@@H](C)O [NZJU55, N-((2S,3R)-3-hydroxy-1-oxo-1-(octadecylamino)butan-2-yl)-6-hydroxylnaphthoic-2-carboxamide] | 73.7 ± 5.21 | 85.8 ± 1.73 | 84.8 ± 4.34 | 48.1 ± 4.67 | 160 ± 5.86 | – | –
CCCCCCCCCCCCNC(=O)[C@@H](NS(=O)(=O)c1cccs1)[C@@H](C)O [NZJU59, N-((2S,3R)-3-hydroxy-1-oxo-1-(dodecylamino)butan-2-yl)-2-thiophene sulfonamide] | 25.9 ± 1.21 | 22 ± 0.86 | 20.1 ± 1.65 | 30.9 ± 1.28 | 41 ± 2.25 | – | –
CCCCCCCCCCCCCCCCCCNC(=O)[C@@H](NC(=O)c1cc2ccccc2o1)[C@@H](C)O [NZJU38, N-((2S,3R)-3-hydroxy-1-oxo-1-(octadecylamino)butan-2-yl)-benzofuran-2-carboxamide] | > 200 | 78.8 ± 6.99 | 162 ± 4.55 | > 200 | > 200 | 126 ± 7.19 | –
CCCCCCCCCCCCCCCCCCNC(=O)[C@@H](N)[C@@H](C)O [NZJU4, (2S,3R)-2-Amino-3-hydroxy-N-octadecylbutanamide] | 44.5 ± 3.49 | 21.3 ± 1.72 | – | 39.5 ± 0.88 | 27.5 ± 3.03 | 27.4 ± 1.8 | 21.4 ± 1.24
